Experimental data taken from ChEMBL document CHEMBL1156903, “Synthesis of bisboron compounds and their strong inhibitory activity on store-operated calcium entry” (Bioorg Med Chem Lett, 2010).

Assay: Inhibition of thapsigargin-induced SOCE channel in fura-2 loaded human Jarkart T cells in presence of 2 mM calcium
Details: Jurkat

IC50 | Compound
320 nM | NCCOB(c1ccccc1)c1cccc(COCc2cccc(B(OCCN)c3ccccc3)c2)c1
410 nM | NCCOB(c1ccccc1)c1ccc(Oc2ccc(B(OCCN)c3ccccc3)cc2)cc1
310 nM | NCCOB(c1ccccc1)c1ccc(CCOCc2ccc(B(OCCN)c3ccccc3)cc2)cc1
640 nM | Cc1ccc(B(OCCN)c2ccc(Oc3ccc(B(OCCN)c4ccc(C)c(Cl)c4)cc3)cc2)cc1Cl
430 nM | NCCOB(c1ccccc1)c1ccc(COCc2ccc(B(OCCN)c3ccccc3)cc2)cc1
450 nM | NCCOB(c1ccccc1)c1ccc(-c2ccc(B(OCCN)c3ccccc3)cc2)cc1
1900 nM | NCCOB(c1ccccc1)c1cccc(COCc2cccc(Oc3ccccc3)c2)c1

Compound | IC50
NCCOB(c1ccccc1)c1ccccc1 | 15000 nM
